Experimental data: patent US6737383B1, “Herbicidal oxadiazolidines” (priority 1999, dated 2004)

Legend:
bedstraw = assay: Test B pre/postemergence bedstraw; format: in vivo, Galium aparine; conditions: Postemergence
Summary of the method: (§1)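 Response is a visual 0-to-10 score relative to untreated plants, where 0 means no effect and 10 means complete control, taken twelve to sixteen days after application. Treatments went onto soil at planting and onto foliage of 1- to 4-leaf plants, using a surfactant-containing non-phytotoxic solvent.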

blackgrass = assay: Test B pre/postemergence blackgrass; format: in vivo, Alopecurus myosuroides; conditions: for Blackgrass plant response rating: Postemergence; for Plant response rating, Blackgrass: Preemergence
Summary of the method: as §1

surinam grass = assay: Test B pre/postemergence surinam grass; format: in vivo, Brachiaria decumbens; conditions: for B. signalgrass plant response rating: Postemergence; for Plant response rating, B. signalgrass: Preemergence
Summary of the method: as §1

cocklebur = assay: Test B pre/postemergence cocklebur; format: in vivo, Xanthium strumarium; conditions: for Cocklebur plant response rating: Postemergence; for Plant response rating, Cocklebur: Preemergence
Summary of the method: as §1

corn = assay: Test B pre/postemergence corn; format: in vivo, Zea mays; conditions: for Corn plant response rating: Postemergence; for Plant response rating, Corn: Preemergence
Summary of the method: as §1

giant foxtail = assay: Test B pre/postemergence giant foxtail; format: in vivo, Setaria faberii; conditions: for Giant foxtail plant response rating: Postemergence; for Plant response rating, Giant foxtail: Preemergence
Summary of the method: as §1

morningglory = assay: Test B pre/postemergence morningglory; format: in vivo, Ipomoea hederacea; conditions: for Morningglory plant response rating: Postemergence; for Plant response rating, Morningglory: Preemergence
Summary of the method: as §1

pigweed = assay: Test B pre/postemergence pigweed; format: in vivo, Amaranthus retroflexus; conditions: for Redroot pigweed plant response rating: Postemergence; for Plant response rating, Redroot pigweed: Preemergence
Summary of the method: as §1

rape = assay: Test B pre/postemergence rape; format: in vivo, Brassica napus; conditions: for Rape plant response rating: Postemergence; for Plant response rating, Rape: Preemergence
Summary of the method: as §1

soybean = assay: Test B pre/postemergence soybean; format: in vivo, Glycine max; conditions: for Soybean plant response rating: Postemergence; for Plant response rating, Soybean: Preemergence
Summary of the method: as §1

sugar beet = assay: Test B pre/postemergence sugar beet; format: in vivo, Beta vulgaris; conditions: for Sugarbeets plant response rating: Postemergence; for Plant response rating, Sugarbeets: Preemergence
Summary of the method: as §1

velvetleaf = assay: Test B pre/postemergence velvetleaf; format: in vivo, Abutilon theophrasti; conditions: for Velvetleaf plant response rating: Postemergence; for Plant response rating, Velvetleaf: Preemergence
Summary of the method: as §1

purple nutsedge = assay: Test B pre/postemergence purple nutsedge; format: in vivo, Cyperus rotundus; conditions: for Nutsedge plant response rating: Postemergence; for Plant response rating, Nutsedge: Preemergence
Summary of the method: as §1

smallflower flatsedge = assay: Test B flood test smallflower flatsedge; format: in vivo, Cyperus difformis
Summary of the method: (§2)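 Plants were grown to the 2-leaf stage before treatment with test chemical, then held in a greenhouse for twelve to sixteen days. Injury was visually rated against untreated controls on a 0–10 scale, where 0 is no effect and 10 is complete control.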

duck salad = assay: Test B flood test duck salad; format: in vivo, Heteranthera limosa
Summary of the method: as §2

bamyardgrass = assay: Test B flood test barnyardgrass; format: in vivo, Echinochloa crus-galli
Summary of the method: as §2

[1] = Rate 125 g/ha, scale of 0 to 10 where 0 is no effect and 10 is complete control
[2] = Rate 250 g/ha, scale 0 to 10, 0 is no effect, 10 is complete control
[3] = Rate 500 g/ha, scale 0 to 10, 0 is no effect, 10 is complete control
[4] = Rate 1000 g/ha, scale 0 to 10 (0 no effect, 10 complete control)
[5] = Rate 250 g/ha, scale 0 to 10 (0 no effect, 10 complete control)
[6] = Rate 500 g/ha, scale of 0 to 10 where 0 is no effect and 10 is complete control
[7] = Pre-emergence, Rate 1000 g/ha, scale 0 to 10 (0 no effect, 10 complete control)
[8] = Rate 125 g/ha, under heading Pre-emergence, flood test species, visual evaluation after twelve to sixteen days
[9] = Rate 250 g/ha, Pre-emergence (flood test species), scale 0 to 10, 0 is no effect, 10 is complete control
[10] = Rate 500 g/ha, Pre-emergence section of Table B, 0 to 10 scale (0 no effect, 10 complete control)

COC(=O)C(CCO)n1c(=O)on(C(=O)N(c2ccc(F)cc2)C(C)C)c1=O (stereo not drawn) [Compound 680]
8: Giant foxtail plant response rating (giant foxtail; [4])
5: Giant foxtail plant response rating (giant foxtail; [3]) | Redroot pigweed plant response rating (pigweed; [4])
4: Plant response rating, Blackgrass (blackgrass; [6]) | Plant response rating, Blackgrass (blackgrass; [4]) | Plant response rating, Giant foxtail (giant foxtail; [6]) | Plant response rating, Velvetleaf (velvetleaf; [4])
7: Plant response rating, Giant foxtail (giant foxtail; [4]) | Morningglory plant response rating (morningglory; [4]) | Plant response rating, Redroot pigweed (pigweed; [4])
3: Blackgrass plant response rating (blackgrass; [4]) | B. signalgrass plant response rating (surinam grass; [4]) | Plant response rating, Redroot pigweed (pigweed; [6]) | Soybean plant response rating (soybean; [3])
1: Blackgrass plant response rating (blackgrass; [3]) | Corn plant response rating (corn; [4]) | Morningglory plant response rating (morningglory; [1]) | Morningglory plant response rating (morningglory; [2]) | Morningglory plant response rating (morningglory; [3])
0: Bedstraw plant response rating (bedstraw; [1]) | Bedstraw plant response rating (bedstraw; [2]) | Bedstraw plant response rating (bedstraw; [3]) | Blackgrass plant response rating (blackgrass; [1]) | Plant response rating, Blackgrass (blackgrass; [1]) | Plant response rating, Blackgrass (blackgrass; [5]) | Blackgrass plant response rating (blackgrass; [2]) | B. signalgrass plant response rating (surinam grass; [1]) | Plant response rating, B. signalgrass (surinam grass; [1]) | Plant response rating, B. signalgrass (surinam grass; [5]) | Plant response rating, B. signalgrass (surinam grass; [6]) | B. signalgrass plant response rating (surinam grass; [2]) | B. signalgrass plant response rating (surinam grass; [3]) | Plant response rating, B. signalgrass (surinam grass; [4]) | Cocklebur plant response rating (cocklebur; [1]) | Cocklebur plant response rating (cocklebur; [4]) | Plant response rating, Cocklebur (cocklebur; [1]) | Plant response rating, Cocklebur (cocklebur; [5]) | Plant response rating, Cocklebur (cocklebur; [6]) | Cocklebur plant response rating (cocklebur; [2]) | Cocklebur plant response rating (cocklebur; [3]) | Plant response rating, Cocklebur (cocklebur; [4]) | Corn plant response rating (corn; [1]) | Plant response rating, Corn (corn; [1]) | Plant response rating, Corn (corn; [5]) | Plant response rating, Corn (corn; [6]) | Corn plant response rating (corn; [2]) | Corn plant response rating (corn; [3]) | Plant response rating, Corn (corn; [4]) | Giant foxtail plant response rating (giant foxtail; [1]) | Plant response rating, Giant foxtail (giant foxtail; [1]) | Giant foxtail plant response rating (giant foxtail; [2]) | Plant response rating, Morningglory (morningglory; [1]) | Plant response rating, Morningglory (morningglory; [6]) | Plant response rating, Morningglory (morningglory; [4]) | Redroot pigweed plant response rating (pigweed; [1]) | Plant response rating, Redroot pigweed (pigweed; [1]) | Redroot pigweed plant response rating (pigweed; [2]) | Redroot pigweed plant response rating (pigweed; [3]) | Rape plant response rating (rape; [1]) | Rape plant response rating (rape; [4]) | Plant response rating, Rape (rape; [1]) | Plant response rating, Rape (rape; [6]) | Rape plant response rating (rape; [2]) | Rape plant response rating (rape; [3]) | Plant response rating, Rape (rape; [4]) | Soybean plant response rating (soybean; [1]) | Plant response rating, Soybean (soybean; [1]) | Plant response rating, Soybean (soybean; [6]) | Soybean plant response rating (soybean; [2]) | Plant response rating, Soybean (soybean; [4]) | Sugarbeets plant response rating (sugar beet; [1]) | Plant response rating, Sugarbeets (sugar beet; [1]) | Plant response rating, Sugarbeets (sugar beet; [6]) | Sugarbeets plant response rating (sugar beet; [2]) | Sugarbeets plant response rating (sugar beet; [3]) | Plant response rating, Sugarbeets (sugar beet; [4]) | Velvetleaf plant response rating (velvetleaf; [1]) | Plant response rating, Velvetleaf (velvetleaf; [1]) | Plant response rating, Velvetleaf (velvetleaf; [6]) | Velvetleaf plant response rating (velvetleaf; [2]) | Velvetleaf plant response rating (velvetleaf; [3]) | Nutsedge plant response rating (purple nutsedge; [1]) | Plant response rating, Nutsedge (purple nutsedge; [1]) | Plant response rating, Nutsedge (purple nutsedge; [6]) | Nutsedge plant response rating (purple nutsedge; [2]) | Nutsedge plant response rating (purple nutsedge; [3]) | Plant response rating, Nutsedge (purple nutsedge; [4]) | S. Flatsedge plant response rating (smallflower flatsedge; [7]) | S. Flatsedge plant response rating (0 to 10 scale, 0 is no effect, 10 is complete control) (smallflower flatsedge; [8]) | S. Flatsedge plant response rating (smallflower flatsedge; [9]) | S. Flatsedge plant response rating (smallflower flatsedge; [10]) | Ducksalad plant response rating (duck salad; [7]) | Ducksalad plant response rating (0 to 10 scale, 0 is no effect, 10 is complete control) (duck salad; [8]) | Ducksalad plant response rating (duck salad; [9]) | Ducksalad plant response rating (duck salad; [10]) | Barnyardgrass plant response rating (bamyardgrass; [7]) | Barnyardgrass plant response rating (0 to 10 scale, 0 is no effect, 10 is complete control) (bamyardgrass; [8]) | Barnyardgrass plant response rating (bamyardgrass; [9]) | Barnyardgrass plant response rating (bamyardgrass; [10])
